From PubChem BioAssay AID1259407 (Chemical Carcinogenesis Research Information System (CCRIS), 2018)
The source made the active and inactive calls. How the calls were made is not given here.

Tested on: CCRIS mutagenicity, Ames/micronucleus/aberration tests
Test: CCRIS mutagenicity studies
Conditions: Test System: AMES SALMONELLA TYPHIMURIUM
[1] = Strain/Indicator: TA97, Metabolic Activation: NONE, Method: PREINCUBATION
[2] = Strain/Indicator: TA98, Metabolic Activation: NONE, Method: PREINCUBATION
[3] = Strain/Indicator: TA100, Metabolic Activation: NONE, Method: PREINCUBATION
[4] = Strain/Indicator: TA1535, Metabolic Activation: NONE, Method: PREINCUBATION
[5] = Strain/Indicator: TA1535, Metabolic Activation: RAT, LIVER, S-9, AROCLOR 1254 (10 OR 30%), Method: PREINCUBATION
[6] = Strain/Indicator: TA100, Metabolic Activation: NONE, Method: STANDARD PLATE
[7] = Strain/Indicator: TA98, Metabolic Activation: RAT, LIVER, S-9, AROCLOR 1254, Method: PREINCUBATION
[8] = Strain/Indicator: TA100, Metabolic Activation: RAT, LIVER, S-9, AROCLOR 1254, Method: PREINCUBATION
[9] = Strain/Indicator: TA98, Metabolic Activation: NONE, Method: STANDARD PLATE
[10] = Strain/Indicator: TA100, Metabolic Activation: RAT, LIVER, S-9, AROCLOR 1254, Method: STANDARD PLATE
[11] = Strain/Indicator: TA1537, Metabolic Activation: NONE, Method: STANDARD PLATE

For CCOP(=S)(OCC)OP(=S)(OCC)OCC, the mutagenic call (Strain/Indicator: TA97, Metabolic Activation: HAMSTER, LIVER, S-9, AROCLOR 1254 (10%), Method: PREINCUBATION) was “inactive; negative”, the mutagenic call [1] was “inactive; negative” and the mutagenic call (Strain/Indicator: TA97, Metabolic Activation: RAT, LIVER, S-9, AROCLOR 1254 (10%), Method: PREINCUBATION) was “inactive; negative”. The mutagenic call (Strain/Indicator: TA98, Metabolic Activation: HAMSTER, LIVER, S-9, AROCLOR 1254 (10%), Method: PREINCUBATION) was “inactive; negative”, the mutagenic call [2] was “inactive; negative” and the mutagenic call (Strain/Indicator: TA98, Metabolic Activation: RAT, LIVER, S-9, AROCLOR 1254 (10%), Method: PREINCUBATION) was “inactive; negative”. For the same molecule, the mutagenic call (Strain/Indicator: TA100, Metabolic Activation: HAMSTER, LIVER, S-9, AROCLOR 1254 (10%), Method: PREINCUBATION) was “inactive; negative”, the mutagenic call [3] was “inactive; negative” and the mutagenic call (Strain/Indicator: TA100, Metabolic Activation: RAT, LIVER, S-9, AROCLOR 1254 (10%), Method: PREINCUBATION) was “inactive; negative”. For the same molecule, the mutagenic call (Strain/Indicator: TA1535, Metabolic Activation: HAMSTER, LIVER, S-9, AROCLOR 1254 (5, 10 OR 30%), Method: PREINCUBATION) was “active; positive”, the mutagenic call [4] was “inactive; negative” and the mutagenic call [5] was “inactive; negative”.
With N[C@@H](CCC(=O)NNc1ccccc1)C(=O)O the mutagenic call [6] was “inactive; negative”, the mutagenic call (Strain/Indicator: TA100, Metabolic Activation: RAT KIDNEY, MICROSOMES, Method: STANDARD PLATE) was “active; positive” and the mutagenic call (Strain/Indicator: TA100, Metabolic Activation: RAT LIVER, MICROSOMES, Method: STANDARD PLATE) was “inactive; negative”.
For CNc1ccc2ncc(C)nc2c1N, the mutagenic call [2] was “inactive; negative”, the mutagenic call [7] was “inactive; negative” and the mutagenic call [3] was “inactive; negative”. The mutagenic call [8] was “inactive; negative”.
O=C1NC2(CCCCC2)C(=O)N1CCN1CC1 was tested, and the mutagenic call (Strain/Indicator: TA1535, Metabolic Activation: NONE, Method: STANDARD PLATE) was “active; positive”.
For c1ccc2c(c1)OCCOCCOCCOCCO2, the mutagenic call [9] was “inactive; negative”, the mutagenic call (Strain/Indicator: TA98, Metabolic Activation: RAT, LIVER, S-9, AROCLOR 1254, Method: STANDARD PLATE) was “inactive; negative” and the mutagenic call [6] was “inactive; negative”. The mutagenic call [10] was “inactive; negative”, the mutagenic call (Strain/Indicator: TA1530, Metabolic Activation: NONE, Method: STANDARD PLATE) was “inactive; negative” and the mutagenic call (Strain/Indicator: TA1530, Metabolic Activation: RAT, LIVER, S-9, AROCLOR 1254, Method: STANDARD PLATE) was “inactive; negative”. The mutagenic call [11] was “inactive; negative” and the mutagenic call (Strain/Indicator: TA1537, Metabolic Activation: RAT, LIVER, S-9, AROCLOR 1254, Method: STANDARD PLATE) was “inactive; negative”.
With [N-]=[N+]=Nc1ccc2c(Nc3ccc(NS(=O)(=O)CCCN)cc3)c3ccc(N=[N+]=[N-])cc3nc2c1 the mutagenic call [11] was “active; positive”.
For Cc1c(/C=N/OCc2cccc([N+](=O)[O-])c2)c2cc([N+](=O)[O-])ccc2n1Cc1ccccc1, the mutagenic call [9] was “active; positive”, the mutagenic call (Strain/Indicator: TA98, Metabolic Activation: RAT, LIVER, S-9, PHENOBARBITAL AND BETA-NAPHTHOFLAVONE, Method: STANDARD PLATE) was “active; positive” and the mutagenic call [6] was “active; positive”. For the same molecule, the mutagenic call (Strain/Indicator: TA100, Metabolic Activation: RAT, LIVER, S-9, PHENOBARBITAL AND BETA-NAPHTHOFLAVONE, Method: STANDARD PLATE) was “active; positive”.
With O=C(O)Nc1ccc(-c2ccccc2)cc1 the mutagenic call [2] was “active; positive”, the mutagenic call (Strain/Indicator: TA98, Metabolic Activation: RAT, LIVER, CYTOSOL, Method: PREINCUBATION) was “active; positive” and the mutagenic call (Strain/Indicator: TA98, Metabolic Activation: RAT, LIVER, MICROSOMES, Method: PREINCUBATION) was “active; positive”.
In the case of CN1C(=O)CN=C(c2ccccc2F)c2cc([N+](=O)[O-])ccc21, the mutagenic call [6] is reported as “active; positive” and the mutagenic call [10] is reported as “active; positive”.
With Cc1ccccc1C(N)=O the mutagenic call (Strain/Indicator: TA97, Metabolic Activation: HAMSTER, LIVER, S-9, AROCLOR 1254 (10 OR 30%), Method: PREINCUBATION) was “inactive; negative”, the mutagenic call [1] was “inactive; negative” and the mutagenic call (Strain/Indicator: TA97, Metabolic Activation: RAT, LIVER, S-9, AROCLOR 1254 (10 OR 30%), Method: PREINCUBATION) was “inactive; negative”. For the same molecule, the mutagenic call (Strain/Indicator: TA98, Metabolic Activation: HAMSTER, LIVER, S-9, AROCLOR 1254 (10 OR 30%), Method: PREINCUBATION) was “inactive; negative”, the mutagenic call [2] was “inactive; negative” and the mutagenic call (Strain/Indicator: TA98, Metabolic Activation: RAT, LIVER, S-9, AROCLOR 1254 (10 OR 30%), Method: PREINCUBATION) was “inactive; negative”. For the same molecule, the mutagenic call (Strain/Indicator: TA100, Metabolic Activation: HAMSTER, LIVER, S-9, AROCLOR 1254 (10 OR 30%), Method: PREINCUBATION) was “inactive; negative”, the mutagenic call [3] was “inactive; negative” and the mutagenic call (Strain/Indicator: TA100, Metabolic Activation: RAT, LIVER, S-9, AROCLOR 1254 (10 OR 30%), Method: PREINCUBATION) was “inactive; negative”. For the same molecule, the mutagenic call (Strain/Indicator: TA1535, Metabolic Activation: HAMSTER, LIVER, S-9, AROCLOR 1254 (10 OR 30%), Method: PREINCUBATION) was “inactive; negative”, the mutagenic call [4] was “inactive; negative” and the mutagenic call [5] was “inactive; negative”.
With C=C(C)C1CO1 (stereo not drawn) the mutagenic call [9] was “inactive; negative” and the mutagenic call [6] was “inactive; negative”.
With COCC12OOC1(C)c1ccccc1O2 (stereo not drawn) the mutagenic call [3] was “active; positive”.
With [Cl-].[Cl-].[NH2-].[NH2-].[NH2-].[NH2-].[Pt+2] the mutagenic call [2] was “inactive; negative”, the mutagenic call [7] was “inactive; negative” and the mutagenic call [3] was “inactive; negative”. The mutagenic call [8] was “inactive; negative”.
For CCN(CC)c1ccc(N=O)cc1, the mutagenic call (Strain/Indicator: TA100, Metabolic Activation: NONE, Method: FLUCTUATION TEST) was “active; positive”.
